Measurements: patent publication US9029322B2, “Compounds for enhancing p21 expression and methods of use thereof” (Cornell University, priority 2007, dated 2015)

Experiments:
[1] = tested on: mouse or human p21 promoter; assay: p21-luciferase reporter screen in stably transfected HT22 cells; assay type: cell-based; conditions: HT22 lines stably expressing p21-luciferase; positive control
Procedure: To identify novel activators of p21, fragments of the mouse or human p21 promoter were subcloned into the pGL3 basic promoter-reporter construct (see promoter sequence information). The resultant p21-luciferase reporter plasmids were each then stably transfected into a mouse hippocampal cell line, HT22. […] Drugs were added to cells stably expressing p21-luciferase in a 96 well format. The HDAC inhibitor trichostatin A was used as a positive control. After 12 hours of drug treatment, the cells were lysed and luciferase activity was measured using a desktop luminometer. Cell viability was monitored in parallel, so that agents that induce toxicity can quickly be eliminated. Secondary screens including real time PCR or Western blots of p21 were monitored in primary neurons.

[2] = tested on: arylhydrocarbon receptor (AHR); assay: Microarray gene analysis on spinal cord tissue RNA after intraperitoneal dosing; assay type: in vivo, rats
Procedure: Based on available dosing data, rats were dosed with 1, 5, 10, 15 or 30 mg/kg ciclopirox (intraperiotoneal; 3 animals per concentration). Spinal cord, liver and skeletal muscle tissue was harvested 6-hours after drug delivery. Real-time rt-PCR was performed on RNA extracted from tissues to examine the expression of p21waf1/cip1, arginase-1, and VEGF in order to determine what might be the most efficacious dose.
Microarray gene analysis was also performed on spinal cord tissue RNA to determine gene expression changes that correlate with treatment and dose in an unbiased manner.

[3] = tested on: contusion injury at the level of T-8; assay: Spinal cord contusion injury, single injection after injury; assay type: in vivo, rats

Compound	p21-luciferase response [1]	AHR gene expression change in spinal cord (microarray) ([2]; rats, 1, 5, 10, 15 or 30 mg/kg intraperitoneal, tissue harvested 6 hours after drug delivery)	induction of transcription in the spinal cord ([2]; rats, intraperitoneal, in vivo)	blood brain barrier penetration ([2]; rats, intraperitoneal, inferred from spinal cord gene expression changes)	protection (lesion volume) ([3]; single 30 mg/kg intraperitoneal injection 30 minutes after contusion injury at T-8)	effect on behavior (functional improvement) ([3]; single injection after injury)
CC(/C=C/C(=O)NO)=C\[C@@H](C)C(=O)c1ccc(N(C)C)cc1 [trichostatin A]	predicted increases in p21-luciferase	–	–	–	–	–
Cc1cc(C2CCCCC2)n(O)c(=O)c1 [ciclopirox]	–	dose-dependent ciclopirox-regulated gene	could induce transcription in the spinal cord	could penetrate the blood brain barrier	significant protection (reduced lesion volume)	little functional improvement
